The text below walks through data of BindingDB's records for doi:10.1021/jm020588f (The Danish University of Pharmaceutical Sciences, 2003).

The nature of the experiment: Effective concentration of compound was determined for electrophysiological properties on Ionotropic glutamate receptor AMPA 1 (GluR1) using […] Xenopus laevis oocytes.

Turning to `NC(Cc1o[nH]c(=O)c1Cl)C(=O)O` [(R,S)-2-amino-3-(4-chloro-3-hydroxy-5-isoxazolyl)propionate], the concentration for a half-maximal effect (EC50) – broadly, the concentration that produces a half-maximal response – came to 4.7 µM.
